# Test results as given in US4409210A, “Antibiotic compound” (priority 1982, dated 1983).
# *1 amine or outer side, *2 acyl side, *3 side chain or, on linkers, in order; H or OH if unused. Where a SMILES comes first, the peptide text is derived from it. Bridges are numbered along the chain shown (N, C = ends). [ ]: non-standard residue; d: D form. ξ: configuration not given here. X2 = CCCCCCCCCCCC(CC(=O)[*:1])O[*:2]; ξAsp(3ξ-OH) = NC(C(=O)O)C(O)C(=O)O; X1 = O=C(C1C(O)CCN1[*:1])[*:2]
# Key:
# Assay type in all cases: cell-based
# [1] = tested on: Staphylococcus aureus #193; assay: MIC, serial two-fold dilution method (aerobic); conditions: for minimum inhibitory concentration (MIC): Staphylococcus aureus #193, Mueller-Hinton agar, inoculum 10^4
# [2] = tested on: Staphylococcus aureus A9601; assay: MIC, serial two-fold dilution method (aerobic); conditions: for minimum inhibitory concentration (MIC): Staphylococcus aureus A9601, Mueller-Hinton agar, inoculum 10^4
# [3] = tested on: Staphylococcus aureus A9748; assay: MIC, serial two-fold dilution method (aerobic); conditions: for minimum inhibitory concentration (MIC): Staphylococcus aureus A9748, Mueller-Hinton agar, inoculum 10^4
# [4] = tested on: Staphylococcus aureus A9856; assay: MIC, serial two-fold dilution method (aerobic); conditions: for minimum inhibitory concentration (MIC): Staphylococcus aureus A9856, Mueller-Hinton agar, inoculum 10^4
# [5] = tested on: Staphylococcus aureus A20239; assay: MIC, serial two-fold dilution method (aerobic); conditions: for minimum inhibitory concentration (MIC): Staphylococcus aureus A20239, Mueller-Hinton agar, inoculum 10^4
# [6] = tested on: Staphylococcus aureus A20610; assay: MIC, serial two-fold dilution method (aerobic); conditions: for minimum inhibitory concentration (MIC): Staphylococcus aureus A20610, Mueller-Hinton agar, inoculum 10^4
# [7] = tested on: Staphylococcus aureus A20701; assay: MIC, serial two-fold dilution method (aerobic); conditions: for minimum inhibitory concentration (MIC): Staphylococcus aureus A20701, Mueller-Hinton agar, inoculum 10^4
# Escherichia coli NIHJ = assay: MIC, serial two-fold dilution method (aerobic); conditions: for minimum inhibitory concentration (MIC): Escherichia coli NIHJ, Mueller-Hinton agar, inoculum 10^4
# Proteus vulgaris A9436 = assay: MIC, serial two-fold dilution method (aerobic); conditions: for minimum inhibitory concentration (MIC): Proteus vulgaris A9436, Mueller-Hinton agar, inoculum 10^4
# [8] = tested on: Clostridium chauvoei A9561; assay: MIC, serial two-fold dilution method (anaerobic); conditions: for minimum inhibitory concentration (MIC): Clostridium chauvoei A9561, GAM agar medium, inoculum 10^7-10^8
# Protocol: (§1) The minimum inhibitory concentration (MIC) of Bu-2517 was determined for a variety of aerobic and anaerobic bacteria by the serial two-fold dilution method using a multi-inoculating apparatus. Mueller-Hinton agar was generally used for aerobic bacteria, GC medium (Eiken) for fastidious aerobic organisms such as streptococci, Neisseria and Haemophilus species, and GAM agar medium (Nissui) for anaerobic bacteria. The inoculum size was adjusted to 10^6 CFU/ml for streptococci, Neisseria and Haemophilus species, 10^4 for other aerobic bacteria and 10^7 -10^8 for all anaerobic organisms. Amphomycin, ampicillin, chloramphenicol, clindamycin, erthromycin, kanamycin and vancomycin were used as reference antibiotics.
# [9] = tested on: Clostridium difficile A21675; assay: MIC, serial two-fold dilution method (anaerobic); conditions: for minimum inhibitory concentration (MIC): Clostridium difficile A21675, GAM agar medium, inoculum 10^7-10^8
# Protocol: as §1
# [10] = tested on: Clostridium difficile A21972; assay: MIC, serial two-fold dilution method (anaerobic); conditions: for minimum inhibitory concentration (MIC): Clostridium difficile A21972, GAM agar medium, inoculum 10^7-10^8
# Protocol: as §1
# [11] = tested on: Clostridium septicum A21869; assay: MIC, serial two-fold dilution method (anaerobic); conditions: for minimum inhibitory concentration (MIC): Clostridium septicum A21869, GAM agar medium, inoculum 10^7-10^8
# Protocol: as §1
# [12] = tested on: Clostridium perfringens A9635; assay: microbe, parasite or virus in culture; conditions: for minimum inhibitory concentration (MIC): Clostridium perfringens A9635, GAM agar medium, inoculum 10^7-10^8
# [13] = tested on: Propionibacterium acnes A22650; assay: MIC, serial two-fold dilution method (anaerobic); conditions: for minimum inhibitory concentration (MIC): Propionibacterium acnes A22650, GAM agar medium, inoculum 10^7-10^8
# [14] = tested on: Peptostreptococcus intermedius A21881; assay: MIC, serial two-fold dilution method (anaerobic); conditions: for minimum inhibitory concentration (MIC): Peptostreptococcus intermedius A21881, GAM agar medium, inoculum 10^7-10^8
# [15] = tested on: Bacteroides fragilis CUH-9; assay: MIC, serial two-fold dilution method (anaerobic); conditions: for minimum inhibitory concentration (MIC): Bacteroides fragilis CUH-9, GAM agar medium, inoculum 10^7-10^8
# [16] = tested on: Bacteroides fragilis A20928-1; assay: MIC, serial two-fold dilution method (anaerobic); conditions: for minimum inhibitory concentration (MIC): Bacteroides fragilis A20928-1, GAM agar medium, inoculum 10^7-10^8
# [17] = tested on: Bacteroides fragilis A20929; assay: MIC, serial two-fold dilution method (anaerobic); conditions: for minimum inhibitory concentration (MIC): Bacteroides fragilis A20929, GAM agar medium, inoculum 10^7-10^8
# [18] = tested on: Bacteroides fragilis A22053; assay: MIC, serial two-fold dilution method (anaerobic); conditions: for minimum inhibitory concentration (MIC): Bacteroides fragilis A22053, GAM agar medium, inoculum 10^7-10^8
# [19] = tested on: Bacteroides fragilis A22533; assay: MIC, serial two-fold dilution method (anaerobic); conditions: for minimum inhibitory concentration (MIC): Bacteroides fragilis A22533, GAM agar medium, inoculum 10^7-10^8
# [20] = tested on: Bacteroides fragilis A22695; assay: MIC, serial two-fold dilution method (anaerobic); conditions: for minimum inhibitory concentration (MIC): Bacteroides fragilis A22695, GAM agar medium, inoculum 10^7-10^8
# [21] = tested on: Fusobacterium necrophorum A20013; assay: MIC, serial two-fold dilution method (anaerobic); conditions: for minimum inhibitory concentration (MIC): Fusobacterium necrophorum A20013, GAM agar medium, inoculum 10^7-10^8
# [22] = tested on: Veillonella alcalescens A21914-1; assay: MIC, serial two-fold dilution method (anaerobic); conditions: for minimum inhibitory concentration (MIC): Veillonella alcalescens A21914-1, GAM agar medium, inoculum 10^7-10^8
# [23] = tested on: Veillonella parvula A20010; assay: MIC, serial two-fold dilution method (anaerobic); conditions: for minimum inhibitory concentration (MIC): Veillonella parvula A20010, GAM agar medium, inoculum 10^7-10^8
compound,measurement,setting,value
CN[C@H](CC(C)C)C(=O)N[C@H]1C(=O)N[C@@H](CC(N)=O)C(=O)N[C@H]2C(=O)N[C@H]3C(=O)N[C@H](C(=O)N[C@H](C(=O)O)c4cc(O)cc(O)c4-c4cc3ccc4O)[C@H](O)c3ccc(c(Cl)c3)Oc3cc2cc(c3O[C@@H]2O[C@H](CO)[C@@H](O)[C@H](O)[C@H]2O[C@H]2C[C@](C)(N)[C@H](O)[C@H](C)O2)Oc2ccc(cc2Cl)[C@H]1O [Vancomycin],MIC,"[1]; Staphylococcus aureus, read-out: minimum inhibitory concentration (MIC)",0.8 µg/mL
same,MIC,"[2]; Staphylococcus aureus, A9601, read-out: minimum inhibitory concentration (MIC)",0.8 µg/mL
same,MIC,"[3]; Staphylococcus aureus, A9748, read-out: minimum inhibitory concentration (MIC)",0.8 µg/mL
same,MIC,"[4]; Staphylococcus aureus, A9856, read-out: minimum inhibitory concentration (MIC)",0.8 µg/mL
same,MIC,"[5]; Staphylococcus aureus, A20239, read-out: minimum inhibitory concentration (MIC)",1.6 µg/mL
same,MIC,"[6]; Staphylococcus aureus, A20610, read-out: minimum inhibitory concentration (MIC)",0.8 µg/mL
same,MIC,"[7]; Staphylococcus aureus, A20701, read-out: minimum inhibitory concentration (MIC)",0.8 µg/mL
same,MIC,"Escherichia coli NIHJ; Escherichia coli, read-out: minimum inhibitory concentration (MIC)",> 100 µg/mL
same,MIC,"Proteus vulgaris A9436; Proteus vulgaris, A9436, read-out: minimum inhibitory concentration (MIC)",> 100 µg/mL
same,MIC,"[8]; Clostridium chauvoei, A9561, read-out: minimum inhibitory concentration (MIC)",0.8 µg/mL
same,MIC,"[9]; Clostridioides difficile, A21675, read-out: minimum inhibitory concentration (MIC)",0.8 µg/mL
same,MIC,"[10]; Clostridioides difficile, A21972, read-out: minimum inhibitory concentration (MIC)",1.6 µg/mL
same,MIC,"[11]; Clostridium septicum, A21869, read-out: minimum inhibitory concentration (MIC)",0.8 µg/mL
same,MIC,"[12]; Clostridium perfringens, A9635, read-out: minimum inhibitory concentration (MIC)",1.6 µg/mL
same,MIC,"[13]; Cutibacterium acnes, A22650, read-out: minimum inhibitory concentration (MIC)",0.8 µg/mL
same,MIC,"[14]; Peptostreptococcus, A21881, read-out: minimum inhibitory concentration (MIC)",1.6 µg/mL
same,MIC,"[15]; Bacteroides fragilis, CUH9, read-out: minimum inhibitory concentration (MIC)",50 µg/mL
same,MIC,"[16]; Bacteroides fragilis, A209281, read-out: minimum inhibitory concentration (MIC)",3.1 µg/mL
same,MIC,"[17]; Bacteroides fragilis, A20929, read-out: minimum inhibitory concentration (MIC)",0.8 µg/mL
same,MIC,"[18]; Bacteroides fragilis, A22053, read-out: minimum inhibitory concentration (MIC)",50 µg/mL
same,MIC,"[19]; Bacteroides fragilis, A22533, read-out: minimum inhibitory concentration (MIC)",50 µg/mL
same,MIC,"[20]; Bacteroides fragilis, A22695, read-out: minimum inhibitory concentration (MIC)",25 µg/mL
same,MIC,"[21]; Fusobacterium necrophorum, A20013, read-out: minimum inhibitory concentration (MIC)",> 100 µg/mL
same,MIC,"[22]; Veillonella parvula, A219141, read-out: minimum inhibitory concentration (MIC)",1.6 µg/mL
same,MIC,"[23]; Veillonella parvula, A20010, read-out: minimum inhibitory concentration (MIC)",0.8 µg/mL
CCCCCCCCCCCC1CC(=O)N2CCCC2C(=O)NC(CO)C(=O)N2CCCC2C(=O)NC(CCCNC(=N)N)C(=O)NC(C(O)C(=O)O)C(=O)NC(CO)C(=O)N2CCC(O)C2C(=O)NC(C(O)C(=O)O)C(=O)O1 (stereo not drawn) [Bu-2517] (PSPR[ξAsp(3ξ-OH)]S[X1][ξAsp(3ξ-OH)]; linker N-C via X2; configuration not given here),minimum inhibitory concentration (MIC),[1],1.6 µg/mL
same,minimum inhibitory concentration (MIC),[2],1.6 µg/mL
same,minimum inhibitory concentration (MIC),[3],1.6 µg/mL
same,minimum inhibitory concentration (MIC),[4],0.8 µg/mL
same,minimum inhibitory concentration (MIC),[5],1.6 µg/mL
same,minimum inhibitory concentration (MIC),[6],1.6 µg/mL
same,minimum inhibitory concentration (MIC),[7],1.6 µg/mL
same,minimum inhibitory concentration (MIC),Escherichia coli NIHJ,> 100 µg/mL
same,minimum inhibitory concentration (MIC),Proteus vulgaris A9436,> 100 µg/mL
same,minimum inhibitory concentration (MIC),[8],3.1 µg/mL
same,minimum inhibitory concentration (MIC),[9],1.6 µg/mL
same,minimum inhibitory concentration (MIC),[10],1.6 µg/mL
same,minimum inhibitory concentration (MIC),[11],1.6 µg/mL
same,minimum inhibitory concentration (MIC),[12],1.6 µg/mL
same,minimum inhibitory concentration (MIC),[13],0.8 µg/mL
same,minimum inhibitory concentration (MIC),[14],3.1 µg/mL
same,minimum inhibitory concentration (MIC),[15],100 µg/mL
same,minimum inhibitory concentration (MIC),[16],25 µg/mL
same,minimum inhibitory concentration (MIC),[17],3.1 µg/mL
same,minimum inhibitory concentration (MIC),[18],> 100 µg/mL
same,minimum inhibitory concentration (MIC),[19],> 100 µg/mL
same,minimum inhibitory concentration (MIC),[20],> 100 µg/mL
same,minimum inhibitory concentration (MIC),[21],> 100 µg/mL
same,minimum inhibitory concentration (MIC),[22],1.6 µg/mL
same,minimum inhibitory concentration (MIC),[23],1.6 µg/mL
Amphomycin,minimum inhibitory concentration (MIC),[1],3.1 µg/mL
same,minimum inhibitory concentration (MIC),[2],3.1 µg/mL
same,minimum inhibitory concentration (MIC),[3],6.3 µg/mL
same,minimum inhibitory concentration (MIC),[4],3.1 µg/mL
same,minimum inhibitory concentration (MIC),[5],6.3 µg/mL
same,minimum inhibitory concentration (MIC),[6],3.1 µg/mL
same,minimum inhibitory concentration (MIC),[7],6.3 µg/mL
same,minimum inhibitory concentration (MIC),Escherichia coli NIHJ,> 100 µg/mL
same,minimum inhibitory concentration (MIC),Proteus vulgaris A9436,> 100 µg/mL
same,minimum inhibitory concentration (MIC),[8],6.3 µg/mL
same,minimum inhibitory concentration (MIC),[9],3.1 µg/mL
same,minimum inhibitory concentration (MIC),[10],25 µg/mL
same,minimum inhibitory concentration (MIC),[11],6.3 µg/mL
same,minimum inhibitory concentration (MIC),[12],6.3 µg/mL
same,minimum inhibitory concentration (MIC),[13],6.3 µg/mL
same,minimum inhibitory concentration (MIC),[14],6.3 µg/mL
same,minimum inhibitory concentration (MIC),[15],> 100 µg/mL
same,minimum inhibitory concentration (MIC),[16],25 µg/mL
same,minimum inhibitory concentration (MIC),[17],50 µg/mL
same,minimum inhibitory concentration (MIC),[18],> 100 µg/mL
same,minimum inhibitory concentration (MIC),[19],> 100 µg/mL
same,minimum inhibitory concentration (MIC),[20],> 100 µg/mL
same,minimum inhibitory concentration (MIC),[21],> 100 µg/mL
same,minimum inhibitory concentration (MIC),[22],25 µg/mL
same,minimum inhibitory concentration (MIC),[23],6.3 µg/mL
